Values quoted from earlier work, collected in patent US5747535A, “Selective thrombin inhibitors” (priority 1995, dated 1998).

What was measured:
[1] = human being; Osamu et al. 1986; cited from earlier work
[2] = literature, cited from earlier work
thrombin over trypsin = conditions: literature (J. Med. Chem. 1994, 37, 3889-3901); cited from earlier work

Row | Compound | elimination half-life [1] [min] | possibility for oral administration ([2]; oral) | half-life in blood [2] | selectivity for thrombin over trypsin (thrombin over trypsin)
1 | CC1CNc2c(cccc2S(=O)(=O)N[C@@H](CCCNC(=N)N)C(=O)N2CC[C@@H](C)C[C@@H]2C(=O)O)C1 (stereo partly shown) [Argatroban] | 40 | – | – | –
2 | N=C(N)N1CCC[C@@H](CNC(=O)C[C@H](NS(=O)(=O)c2ccc3ccccc3c2)C(=O)N(CC(=O)O)C2CC2)C1 [Ro 46-6240] | – | does not show any possibility for oral administration | short half-life in blood | improved selectivity for thrombin over trypsin
